Results published in ChEMBL document CHEMBL3102818, “Tocopheramine succinate and tocopheryl succinate: mechanism of mitochondrial inhibition and superoxide radical production” (Bioorg Med Chem, 2014).
Active and inactive are the calls of the source. No cut-off for these calls is given here.

Experiments:
[1] = Drug degradation in mouse N18TG2 cells assessed as alpha-TOH formation at 10 nmol after 24 hrs by HPLC analysis; format: ADME, cell-based; details: n18tg2, 24 h
N18TG2 [2] = test: Induction of superoxide radical generation in mouse N18TG2 cells assessed as CMH oxidation at 200 uM after 2 hrs by ESR spectroscopy relative to control; format: functional, cell-based
Bos taurus [3] = organism: Bos taurus; test: (§1) Inhibition of bovine mitochondrial electron transport protein complex 3 dUQH2:cytochrome c oxidoreductase activity by spectrophotometry
Bos taurus [4] = organism: Bos taurus; test: Induction of superoxide radical generation in bovine succinate-respiring submitochondrial particles assessed as oxidation of CPH after 2 mins by ESR spectroscopy relative to control; format: functional
Bos taurus [5] = organism: Bos taurus; test: Induction of superoxide radical generation in bovine NADH-respiring submitochondrial particles assessed as oxidation of CPH after 2 mins by ESR spectroscopy relative to control; format: functional
[6] = Inhibition of bovine mitochondrial electron transport protein complex 2 succinate:DCPIP oxidoreductase activity by spectrophotometry; set-up: species or system Bos taurus
Liver [7] = test: Drug degradation in rat liver homogenates assessed as alpha-TOH formation at 500 nmol after 4 hrs by HPLC analysis; format: ADME, tissue-based; details: tissue homogenate
HeLa = test: Cytotoxicity against human HeLa cells at 100 to 200 uM by MTT assay; format: functional, cell-based
[8] = as §1; set-up: species or system Bos taurus
Liver [9] = test: Drug degradation in denaturated rat liver homogenates assessed as compound recovery at 500 nmol after 4 hrs by HPLC analysis; format: ADME, tissue-based; details: tissue homogenate
Bos taurus [10] = organism: Bos taurus; test: Induction of superoxide radical generation in bovine NADH-respiring submitochondrial particles assessed as oxidation of CPH at 900 uM after 2 mins by ESR spectroscopy in presence of superoxide dismutase relative to control; format: functional
Bos taurus [11] = organism: Bos taurus; test: Inhibition of oxygen consumption in bovine succinate-respiring submitochondrial particles involving complexes 2,3,4 after 3 mins relative to control; format: functional
N18TG2 [12] = test: Cytotoxicity against mouse N18TG2 cells at 6.25 to 100 uM by MTT assay; format: functional, cell-based
Bos taurus [13] = organism: Bos taurus; test: Inhibition of bovine mitochondrial electron transport protein complex 1 NADH:dUQ oxidoreductase activity by spectrophotometry
Bos taurus [14] = organism: Bos taurus; test: Induction of superoxide radical generation in bovine succinate-respiring submitochondrial particles assessed as oxidation of CPH at 900 uM after 2 mins by ESR spectroscopy in presence of superoxide dismutase relative to control; format: functional
Bos taurus [15] = organism: Bos taurus; test: Inhibition of oxygen consumption in bovine NADH-respiring submitochondrial particles involving complexes 1,3,4 after 3 mins relative to control; format: functional
Liver [16] = test: Drug degradation in rat liver homogenates at 500 nmol after 4 hrs by HPLC analysis; format: ADME, tissue-based; details: tissue homogenate
Bos taurus [17] = organism: Bos taurus; test: Induction of superoxide radical generation in bovine succinate-respiring submitochondrial particles assessed as oxidation of CPH at 50 uM after 2 mins by ESR spectroscopy; format: functional
Bos taurus [18] = organism: Bos taurus; test: Induction of superoxide radical generation in bovine succinate-respiring submitochondrial particles assessed as oxidation of CPH at 900 uM after 2 mins by ESR spectroscopy; format: functional
Bos taurus [19] = organism: Bos taurus; test: Induction of superoxide radical generation in bovine NADH-respiring submitochondrial particles assessed as oxidation of CPH at 900 uM after 2 mins by ESR spectroscopy; format: functional
Bos taurus [20] = organism: Bos taurus; test: Induction of superoxide radical generation in bovine succinate-respiring submitochondrial particles assessed as oxidation of CPH at 900 uM after 2 mins by ESR spectroscopy in presence of rotenone; format: functional
Bos taurus [21] = organism: Bos taurus; test: Induction of superoxide radical generation in bovine NADH-respiring submitochondrial particles assessed as oxidation of CPH at 36 uM after 2 mins by ESR spectroscopy; format: functional
Bos taurus [22] = organism: Bos taurus; test: Induction of superoxide radical generation in bovine succinate-respiring submitochondrial particles assessed as oxidation of CPH at 36 uM after 2 mins by ESR spectroscopy in presence of rotenone; format: functional
[23] = Induction of superoxide radical generation in mouse N18TG2 cells assessed as CMH oxidation at 50 uM after 2 hrs by ESR spectroscopy (reference value: 0.40 +/- 0.05 pmol/min); format: functional
Bos taurus [24] = organism: Bos taurus; test: Induction of superoxide radical generation in bovine succinate-respiring submitochondrial particles assessed as oxidation of CPH at 36 uM after 2 mins by ESR spectroscopy; format: functional

Row | Structure (SMILES) | Activity (N18TG2 [2]) | Activity (Bos taurus [4]) | Activity (Bos taurus [5]) | IC50 [6] | Stability (Liver [7]) | Stability [1] | Activity (HeLa) | IC50 [8] | Stability (Liver [9]) | Activity (Bos taurus [10]) | inhibition (Bos taurus [11]) | Activity (N18TG2 [12]) | inhibition (Bos taurus [13]) | Activity (Bos taurus [14]) | inhibition (Bos taurus [15]) | Stability (Liver [16]) | further results
1 | CC(=O)Oc1c(C)c(C)c2c(c1C)CC[C@@](C)(CCC[C@H](C)CCC[C@H](C)CCCC(C)C)O2 | inactive | inactive | inactive | > 1000 µM |  |  |  |  |  |  |  |  |  |  |  |  | Drug degradation [1]: 100%; inhibition (Bos taurus [3]): Active
2 | Cc1c(C)c2c(c(C)c1NC(=O)CCC(=O)O)CC[C@@](C)(CCC[C@H](C)CCC[C@H](C)CCCC(C)C)O2 | inactive | inactive | inactive | 106 µM | Stable | Stable | inactive | 137 µM | Stable | inactive | Dose-dependent effect | Active | inactive | inactive | Dose-dependent effect | Unstable | 
3 | C=C(C)[C@H]1Cc2c(ccc3c2O[C@@H]2COc4cc(OC)c(OC)cc4[C@@H]2C3=O)O1 |  |  |  |  |  |  |  |  |  |  |  |  |  |  |  |  | Activity (Bos taurus [17]): Active
4 | Cc1c(C)c2c(c(C)c1OC(=O)CCC(=O)O)CC[C@@](C)(CCC[C@H](C)CCC[C@H](C)CCCC(C)C)O2 [(+)-ALPHA-TOCOPHERYL SUCCINATE] | Active | Active | Active | 42 µM | Unstable | Unstable | inactive | 315 µM | Stable | inactive | Dose-dependent effect | Active | inactive | inactive | Dose-dependent effect | Unstable | Activity (Bos taurus [18]): Active; Activity (Bos taurus [19]): Active; Activity (Bos taurus [20]): Active
5 | CCCCCC[C@H]1C(=O)O[C@H](C)[C@H](NC(=O)c2cccc(NC=O)c2O)C(=O)O[C@@H](C)[C@@H]1OC(=O)CC(C)C [ANTIMYCIN A] |  |  |  |  |  |  |  |  |  |  |  |  |  |  |  |  | Activity (Bos taurus [21]): Active; Activity (Bos taurus [22]): Active; Activity [23]: 1.2 pmol/min; Activity (Bos taurus [24]): Active
